Results on eight compounds are retold here after PubChem BioAssay (NCI).

Among the test systems are A549 NSCLC; CCRF-CEM leukemia; OVCAR-3 ovarian; SN12C renal; OVCAR-8 ovarian; HCT-116 colon; MALME-3M melanoma; HCT-15 colon; UO-31 renal; EKVX NSCLC; LOX IMVI melanoma; NCI-H460 lung; HOP-92 NSCLC; U251 CNS; IGROV1 ovarian; SF-539 CNS; SK-MEL-2 melanoma; SK-OV-3 ovarian; HCC-2998 colon; M14 melanoma.
Holding throughout (assay): growth of human tumour cells (NCI), 48 h

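Following 48 hours of exposure in 96-well plates, responses at five concentrations were used to interpolate endpoints linearly. Definition used: TGI = concentration required for complete inhibition of growth.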 Where only a bound is given, the exact number is not on record here.

For `COc1ccccc1Cc1nc(-c2ccccc2)nn(C2OC(COC(C)=O)C(OC(C)=O)C(OC(C)=O)C2OC(C)=O)c1=S` (stereo unspecified), the TGI in the assay with A549 NSCLC is more than 100 µM; with CCRF-CEM leukemia it was more than 100 µM; in the assay with OVCAR-3 ovarian, more than 85.3 µM; in the assay with SN12C renal it was 32.2 µM; in the assay on OVCAR-8 ovarian it was more than 100 µM; in the assay with HCT-116 colon, more than 45.9 µM. The TGI was 72.3 µM with MALME-3M melanoma; 84.6 µM in the assay on HCT-15 colon; more than 86 µM with UO-31 renal; more than 86.4 µM in the assay with EKVX NSCLC; more than 100 µM in the assay with LOX IMVI melanoma; more than 73.5 µM in the assay on NCI-H460 lung. Also, the TGI with HOP-92 NSCLC was 24.4 µM; with U251 CNS it was more than 31.6 µM; in the assay with IGROV1 ovarian, more than 93.9 µM; in the assay with SF-539 CNS it was 33.6 µM; with SK-MEL-2 melanoma it was 41.3 µM; in the assay with SK-OV-3 ovarian, more than 67.2 µM. In the assay with HCC-2998 colon, this compound yielded a TGI of more than 43.2 µM.
With `Cc1cn(Cc2cnnn2CC2OC(n3cc(C)c(=O)[nH]c3=O)CC2O)c(=O)[nH]c1=O` (stereo unspecified), the TGI in the assay with A549 NSCLC, in the assay with CCRF-CEM leukemia, with OVCAR-3 ovarian, in the assay with SN12C renal, with OVCAR-8 ovarian and in the assay on HCT-116 colon was more than 100 µM each time. For the same compound, the TGI in the assay on MALME-3M melanoma, in the assay with HCT-15 colon, in the assay with M14 melanoma, in the assay on UO-31 renal, in the assay with EKVX NSCLC and in the assay on LOX IMVI melanoma was more than 100 µM throughout. Moreover, the TGI in the assay on HOP-92 NSCLC, in the assay on U251 CNS, in the assay with IGROV1 ovarian, in the assay with SF-539 CNS, with SK-MEL-2 melanoma and in the assay on SK-OV-3 ovarian was more than 100 µM throughout. In the assay on HCC-2998 colon, this compound yielded a TGI of more than 100 µM.
Take `COc1cc2cc[n+]3c(C)c4cc(OC)c(OC)cc4c([O-])c3c2cc1OC`: the TGI in the assay with A549 NSCLC is more than 100 µM; in the assay with CCRF-CEM leukemia, more than 100 µM; with OVCAR-3 ovarian, 24.7 µM; with SN12C renal it was more than 100 µM; in the assay with OVCAR-8 ovarian, more than 100 µM; in the assay on HCT-116 colon it was more than 100 µM. The TGI in the assay with MALME-3M melanoma was 79.7 µM; with HCT-15 colon, more than 100 µM; with M14 melanoma, more than 100 µM; with UO-31 renal, more than 100 µM; in the assay with EKVX NSCLC, more than 100 µM; in the assay on NCI-H460 lung, more than 100 µM. Also, the TGI was more than 100 µM in the assay on HOP-92 NSCLC; more than 100 µM in the assay on U251 CNS; 72.8 µM in the assay on IGROV1 ovarian; more than 100 µM in the assay with SF-539 CNS; more than 100 µM with SK-MEL-2 melanoma; more than 100 µM in the assay with SK-OV-3 ovarian. In the assay on HCC-2998 colon, this compound yielded a TGI of more than 100 µM.
Regarding `COc1ccc(C(=O)Cc2ccc(Br)cc2)cc1OC`, the TGI in the assay on A549 NSCLC, in the assay on CCRF-CEM leukemia, with OVCAR-3 ovarian, in the assay on SN12C renal, with OVCAR-8 ovarian and with HCT-116 colon was more than 100 µM each time. For the same compound, the TGI in the assay with MALME-3M melanoma, in the assay with HCT-15 colon, in the assay on M14 melanoma, in the assay with UO-31 renal, in the assay on EKVX NSCLC and in the assay with LOX IMVI melanoma was more than 100 µM each time. The TGI in the assay on NCI-H460 lung, in the assay with U251 CNS, with IGROV1 ovarian, with SF-539 CNS, with SK-MEL-2 melanoma and with SK-OV-3 ovarian was more than 100 µM throughout. Besides, in the assay with HCC-2998 colon, the TGI was more than 100 µM.
As for `CCOC(=O)Cc1cc(OC)c(OC)cc1/C(Cl)=C(\C=O)c1ccc(OC)c(OC)c1`, the TGI in the assay on A549 NSCLC was determined as 57.1 µM; with OVCAR-3 ovarian, 28.1 µM; in the assay with SN12C renal, 33.5 µM; with OVCAR-8 ovarian, 80.8 µM; in the assay with HCT-116 colon it was 29 µM; with MALME-3M melanoma it was 74.3 µM. For the same compound, the TGI in the assay with HCT-15 colon came out at 45.2 µM; with M14 melanoma, 32.1 µM; with UO-31 renal it was 85.3 µM; in the assay on EKVX NSCLC, 71.7 µM; in the assay with LOX IMVI melanoma, 36.4 µM; in the assay with NCI-H460 lung, 17.9 µM. Also, the TGI turned out to be 10.3 µM in the assay on HOP-92 NSCLC; 33.1 µM with U251 CNS; 78.9 µM with IGROV1 ovarian; 62.9 µM in the assay with SK-MEL-2 melanoma; 86 µM in the assay with SK-OV-3 ovarian.
As to `COc1cc(C(C)c2cc3c(cc2OCCO)OCO3)cc(OC)c1OC` (stereo unspecified), the TGI in the assay with A549 NSCLC, with CCRF-CEM leukemia, in the assay with SN12C renal, in the assay with OVCAR-8 ovarian, in the assay with HCT-116 colon and in the assay on MALME-3M melanoma was more than 100 µM each time. The TGI with HCT-15 colon, in the assay with M14 melanoma, in the assay on UO-31 renal, in the assay with EKVX NSCLC, with LOX IMVI melanoma and in the assay on NCI-H460 lung was more than 100 µM each time. Further, the TGI is more than 100 µM in the assay with U251 CNS; more than 100 µM in the assay with IGROV1 ovarian; 4.81 µM with SF-539 CNS; more than 100 µM with SK-MEL-2 melanoma; more than 100 µM in the assay with HCC-2998 colon.
As for `Cc1nc2c(sc(=S)n2-c2ccccc2)c(=O)[nH]1`, the TGI in the assay on A549 NSCLC, with CCRF-CEM leukemia, in the assay with OVCAR-3 ovarian, with OVCAR-8 ovarian, in the assay with HCT-116 colon and in the assay with MALME-3M melanoma was more than 100 µM in each case. For the same compound, the TGI in the assay on UO-31 renal, in the assay on NCI-H460 lung, in the assay on HOP-92 NSCLC, in the assay on U251 CNS, in the assay on IGROV1 ovarian and in the assay with SF-539 CNS was more than 100 µM in each case. The TGI with SK-MEL-2 melanoma, in the assay on SK-OV-3 ovarian and in the assay with HCC-2998 colon was more than 100 µM throughout.
Turning to `NCCCN(CCCN)CCN(CCN(CCCN)CCCN)CCN(CCCN)CCCN`, the TGI with A549 NSCLC, in the assay with OVCAR-3 ovarian, in the assay on SN12C renal, in the assay on OVCAR-8 ovarian, with HCT-116 colon and in the assay on HCT-15 colon was more than 100 µM each time. For the same compound, the TGI in the assay on M14 melanoma, in the assay on UO-31 renal, in the assay with LOX IMVI melanoma, in the assay with NCI-H460 lung, in the assay on HOP-92 NSCLC and in the assay on U251 CNS was more than 100 µM each time. The TGI with IGROV1 ovarian, in the assay on SK-MEL-2 melanoma, in the assay with SK-OV-3 ovarian and in the assay with HCC-2998 colon was more than 100 µM each time.
